Test results taken from US11407721B2, “CIS-morpholinone and other compounds as MDM2 inhibitors for the treatment of cancer” (AMGEN INC., priority 2013, dated 2022).
pIC50: −log10 of the molar value. Where two headings read alike, the source gives them in different places.

How the values were obtained:
[1] = target: interaction between HDM2 and p53 (GST-hMDM2 (1-188) / biotinylated-p53 (1-83)) (Homo sapiens (Human), UniProt Q00987); assay: HTRF2 Assay (improved HTRF assay); format: binding
[2] = target: interaction between HDM2 and p53 (GST-hMDM2 / biotinylated-p53) (Homo sapiens (Human), UniProt Q00987); assay: biochemical
Chain of interaction between HDM2 and p53 (GST-hMDM2 / biotinylated-p53) (Q00987 1-188): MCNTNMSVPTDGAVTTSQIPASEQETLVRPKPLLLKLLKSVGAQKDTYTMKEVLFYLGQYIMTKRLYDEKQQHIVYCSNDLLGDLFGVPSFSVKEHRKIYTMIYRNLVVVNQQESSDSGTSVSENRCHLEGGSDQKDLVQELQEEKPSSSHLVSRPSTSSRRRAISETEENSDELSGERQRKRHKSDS

[3] = 0.2 nM GST-hMDM2 (1-188), 0.5 nM biotinylated-p53 (1-83), 100 mM KF, read-out: HTRF2 IC50

Chain of interaction between HDM2 and p53 (GST-hMDM2 (1-188) / biotinylated-p53 (1-83)) (Q00987 1-188): as above

Row | SMILES | pIC50 [1, 3] | pIC50 [2] | pIC50 [1] | pIC50 ([1]; read-out: HTRF2 IC50)
1 | CN1C(=O)CN(Cc2ccccc2)[C@H](c2ccc(Br)cc2)[C@@H]1c1ccc(Br)cc1 [(5R,6S)-5,6-bis(4-bromophenyl)-1-methyl-4-(phenylmethyl)-2-piperazinone] | – | 4.14 | – | –
2 | CC[C@H](C(=O)O)N1C(=O)CO[C@H](c2ccc(Cl)cc2)[C@@H]1c1ccc(Cl)cc1 [(2R)-2-((2R,3S)-2,3-bis(4-chlorophenyl)-5-oxo-4-morpholinyl)butanoic acid] | – | 4.40 | – | –
3 | C[C@H](C(=O)O)N1C(=O)CO[C@H](c2ccc(Cl)cc2)[C@@H]1c1ccc(Cl)cc1 [(2R)-2-((2R,3S)-2,3-bis(4-chlorophenyl)-5-oxo-4-morpholinyl)propanoic acid] | – | 4.21 | – | –
4 | C=CC[C@H]1O[C@H](c2ccc(Br)cc2)[C@H](c2ccc(Br)cc2)N(C)C1=O [(2R,5S,6R)-5,6-bis(4-bromophenyl)-4-methyl-2-(2-propen-1-yl)-3-morpholinone] | 4.60 | 4.63 | – | –
5 | O=C1CO[C@@H](c2ccc(Cl)cc2)[C@@H](c2ccc(Cl)cc2)N1c1cccnc1 [(5R,6S)-5,6-bis(4-chlorophenyl)-4-(3-pyridinyl)-3-morpholinone] | 4.53 | 4.62 | – | –
6 | CCN1C(=O)CO[C@H](c2ccc(Br)cc2)[C@@H]1c1ccc(Br)cc1 [(5S,6R)-5,6-bis(4-bromophenyl)-4-ethyl-3-morpholinone] | – | 4.37 | – | –
7 | O=C1CO[C@@H](c2ccc(Cl)cc2)[C@@H](c2ccc(Cl)cc2)N1c1ccncc1 [(5R,6S)-5,6-bis(4-chlorophenyl)-4-(4-pyridinyl)-3-morpholinone] | 4.77 | 4.62 | – | –
8 | O=C1CO[C@@H](c2ccc(Cl)cc2)[C@@H](c2ccc(Cl)cc2)N1CC1CC1 [(5R,6S)-5,6-bis(4-chlorophenyl)-4-(cyclopropylmethyl)-3-morpholinone] | – | 4.38 | – | –
9 | O=C1CN(Cc2ccccc2)[C@H](c2ccc(Br)cc2)[C@H](c2ccc(Br)cc2)N1 [(5R,6S)-5,6-bis(4-bromophenyl)-4-(phenylmethyl)-2-piperazinone] | – | 4.07 | – | –
10 | CCCC[C@H](C(=O)O)N1C(=O)CO[C@H](c2ccc(Cl)cc2)[C@@H]1c1ccc(Cl)cc1 [(2R)-2-((2R,3S)-2,3-bis(4-chlorophenyl)-5-oxo-4-morpholinyl)hexanoic acid] | – | 4.48 | – | –
11 | CN1C(=O)[C@H](O)O[C@@H](c2ccc(Cl)cc2)[C@H]1c1ccc(Cl)cc1 [(2R,5R,6S)-5,6-bis(4-chlorophenyl)-2-hydroxy-4-methyl-3-morpholinone] | – | 4.17 | – | –
12 | CN1C(=O)[C@@H](c2ccccc2)O[C@H](c2ccc(Br)cc2)[C@@H]1c1ccc(Br)cc1 [(2R,5S,6R)-5,6-bis(4-bromophenyl)-4-methyl-2-phenyl-3-morpholinone] | 4.70 | 4.91 | – | –
13 | CC(C)N1C(=O)CO[C@H](c2ccc(Br)cc2)[C@@H]1c1ccc(Br)cc1 [(5S,6R)-5,6-bis(4-bromophenyl)-4-(1-methylethyl)-3-morpholinone] | < 4.00 | 4.61 | – | –
14 | O=C1CO[C@@H](c2ccc(Br)cc2)[C@@H](c2ccc(Br)cc2)N1C1CC1 [(5R,6S)-5,6-bis(4-bromophenyl)-4-cyclopropyl-3-morpholinone] | – | 4.42 | – | –
15 | O=C1CO[C@@H](c2cccc(Cl)c2)[C@@H](c2ccc(Cl)cc2)N1C1CCCC1 [(5R,6S)-6-(3-chlorophenyl)-5-(4-chlorophenyl)-4-cyclopentyl-3-morpholinone] | 5.00 | 4.78 | – | –
16 | CCC[C@H](CCC(=O)O)N1C(=O)CO[C@@H](c2ccc(Cl)cc2)[C@H]1c1ccc(Cl)cc1 [(4R)-4-((2S,3R)-2,3-bis(4-chlorophenyl)-5-oxo-4-morpholinyl)heptanoic acid] | 4.61 | – | – | –
17 | CCC[C@H](C(=O)O)N1C(=O)[C@H](Cc2ccc(S(C)(=O)=O)c(F)c2)O[C@@H](c2ccc(Cl)cc2)[C@H]1c1ccc(Cl)cc1 [Example 53, (R)-2-((2S,3R,6S)-2,3-Bis(4-chlorophenyl)-6-(3-fluoro-4-(methylsulfonyl)benzyl)-5-oxomorpholino)pentanoic acid] | 6.56 | – | – | –
18 | CCC[C@H](C(=O)O)N1C(=O)[C@H](CCN2CCN(C)CC2)O[C@@H](c2ccc(Cl)cc2)[C@H]1c1ccc(Cl)cc1 [(2R)-2-((2S,3R,6S)-2,3-bis(4-chlorophenyl)-6-(2-(4-methyl-1-piperazinyl)ethyl)-5-oxo-4-morpholinyl)pentanoic acid] | 6.10 | – | – | –
19 | CCC[C@H](C(=O)NCCCC(=O)O)N1C(=O)[C@H](Cc2ccc(S(C)(=O)=O)cc2)O[C@@H](c2ccc(Cl)cc2)[C@H]1c1ccc(Cl)cc1 [4-(((2R)-2-((2S,3R,6S)-2,3-bis(4-chlorophenyl)-6-(4-(methylsulfonyl)benzyl)-5-oxo-4-morpholinyl)pentanoyl)amino)butanoic acid] | 5.61 | – | – | –
20 | CCC[C@H](C(=O)O)N1C(=O)[C@H](Cc2cccc(F)c2)O[C@@H](c2ccc(Cl)cc2)[C@H]1c1ccc(Cl)cc1 [Example 48, (R)-2-((2S,3R,6S)-2,3-Bis(4-chlorophenyl)-6-(3-fluorobenzyl)-5-oxomorpholino)pentanoic acid] | 6.38 | – | – | –
21 | C[C@H]1O[C@@H](c2ccc(Br)cc2)[C@@H](c2ccc(Br)cc2)N(C)C1=O [(2R,5R,6S)-5,6-bis(4-bromophenyl)-2,4-dimethyl-3-morpholinone] | – | 4.33 | – | –
22 | CN1C(=O)[C@@H](CC(N)=O)O[C@H](c2ccc(Cl)cc2)[C@@H]1c1ccc(Cl)cc1 [2-((2R,5S,6R)-5,6-bis(4-chlorophenyl)-4-methyl-3-oxo-2-morpholinyl)acetamide] | – | 4.36 | – | –

Further molecules by rising pIC50 [2], results first:

Row | pIC50 [1, 3] | pIC50 [2] | pIC50 [1] | pIC50 ([1]; read-out: HTRF2 IC50) | SMILES
23 | 5.18 | 4.98 | – | – | CN1C(=O)/C(=C/c2cccnc2)O[C@H](c2ccc(Cl)cc2)C1c1ccc(Cl)cc1 (mixture of isomers) [Example 39, (5S,6R,Z)-5,6-Bis(4-chlorophenyl)-4-methyl-2-(pyridin-3-ylmethylene)morpholin-3-one and (5R,6S,Z)-5,6-bis(4-chlorophenyl)-4-methyl-2-(pyridin-3-ylmethylene)morpholin-3-one]
24 | 5.22 | 5.16 | – | – | CCC[C@H](CN)N1C(=O)CO[C@@H](c2ccc(Cl)cc2)[C@H]1c1ccc(Cl)cc1 [(5R,6S)-4-((1R)-1-(aminomethyl)butyl)-5,6-bis(4-chlorophenyl)-3-morpholinone]
25 | – | 5.33 | – | 5.44 | O=C1[C@H](C[C@H](O)CO)O[C@@H](c2cccc(Cl)c2)[C@@H](c2ccc(Cl)cc2)N1CC1CC1 (racemic) [Example 14, Step B]
26 | – | 5.40 | – | 5.48 | O=CC[C@@H]1O[C@@H](c2cccc(Cl)c2)[C@@H](c2ccc(Cl)cc2)N(CC2CC2)C1=O (racemic) [Example 15, (2-((2S,5R,6S)-6-(3-Chlorophenyl)-5-(4-chlorophenyl)-4-(cyclopropylmethyl)-3-oxomorpholin-2-yl)acetaldehydeacetaldehyde and (2-((2R,5S,6R)-6-(3-chlorophenyl)-5-(4-chlorophenyl)-4-(cyclopropylmethyl)-3-oxomorpholin-2-yl)acetaldehydeacetaldehyde]
27 | 5.44 | 5.43 | – | – | CCC[C@H](COC(N)=O)N1C(=O)CO[C@@H](c2ccc(Cl)cc2)[C@H]1c1ccc(Cl)cc1 [(2R)-2-((2S,3R)-2,3-bis(4-chlorophenyl)-5-oxo-4-morpholinyl)pentyl carbamate]
28 | 5.37 | 5.50 | – | – | CCC[C@H](C(N)=O)N1C(=O)CO[C@@H](c2ccc(Cl)cc2)[C@H]1c1ccc(Cl)cc1 [(2R)-2-((2S,3R)-2,3-bis(4-chlorophenyl)-5-oxo-4-morpholinyl)pentanamide]
29 | 6.02 | 6.27 | – | – | CCC[C@@H](C(=O)O)N1C(=O)[C@@H](Cc2ccncc2)O[C@H](c2ccc(Cl)cc2)C1c1ccc(Cl)cc1 (mixture of isomers) [Example 42, (S)-2-((2R,3S,6R)-2,3-Bis(4-chlorophenyl)-5-oxo-6-(pyridin-4-ylmethyl)morpholino)pentanoic acid and (R)-2-((2S,3R,6S)-2,3-bis(4-chlorophenyl)-5-oxo-6-(pyridin-4-ylmethyl)morpholino)pentanoic acid]
30 | – | 6.29 | – | – | CCC[C@H](c1nnn[nH]1)N1C(=O)[C@H](Cc2ccc(I)cc2)O[C@@H](c2ccc(Cl)cc2)[C@H]1c1ccc(Cl)cc1 (racemic) [Example 36, (2S,5R,6S)-4-((R)-1-(1H-Tetrazol-5-yl)butyl)-5,6-bis(4-chlorophenyl)-2-(4-iodobenzyl)morpholin-3-one and (2R,5S,6R)-4-((S)-1-(1H-tetrazol-5-yl)butyl)-5,6-bis(4-chlorophenyl)-2-(4-iodobenzyl)morpholin-3-one]
31 | – | 6.31 | – | 6.13 | CCC[C@H](C(=O)NCC(N)=O)N1C(=O)[C@H](Cc2ccc(C#N)cc2)O[C@@H](c2ccc(Cl)cc2)[C@H]1c1ccc(Cl)cc1 (racemic) [Example 34, (R)—N-(2-Amino-2-oxoethyl)-2-((2S,3R,6S)-2,3-bis(4-chlorophenyl)-6-(4-cyanobenzyl)-5-oxomorpholino)pentanamide and (S)—N-(2-amino-2-oxoethyl)-2-((2R,3S,6R)-2,3-bis(4-chlorophenyl)-6-(4-cyanobenzyl)-5-oxomorpholino)pentanamide]
32 | – | 6.35 | 6.27 | – | CCC[C@H](C(=O)O)N1C(=O)[C@H](Cc2ccc(C#N)c(F)c2)O[C@@H](c2ccc(Cl)cc2)[C@H]1c1ccc(Cl)cc1 [(2R)-2-((2S,3R,6S)-2,3-bis(4-chlorophenyl)-6-(4-cyano-3-fluorobenzyl)-5-oxo-4-morpholinyl)pentanoic acid]
33 | – | 6.41 | 6.29 | – | CCC[C@H](C(=O)NCC(=O)O)N1C(=O)[C@H](Cc2ccc(C#N)c(F)c2)O[C@@H](c2ccc(Cl)cc2)[C@H]1c1ccc(Cl)cc1 [N-((2R)-2-((2S,3R,6S)-2,3-bis(4-chlorophenyl)-6-(4-cyano-3-fluorobenzyl)-5-oxo-4-morpholinyl)pentanoyl)glycine]
34 | – | 6.53 | 6.41 | – | CCC[C@H](C(=O)O)N1C(=O)[C@H](Cc2ccc(C#N)cc2)O[C@@H](c2ccc(Cl)cc2)[C@H]1c1ccc(Cl)cc1 [(2R)-2-((2S,3R,6S)-2,3-bis(4-chlorophenyl)-6-(4-cyanobenzyl)-5-oxo-4-morpholinyl)pentanoic acid]
